Laboratory results as given in patent US20240239806A1, “COMPOUNDS, COMPOSITIONS AND METHODS OF TREATING DISORDERS” (Chengdu Anticancer Bioscience, Ltd., priority 2021, published 2024).
pEC50, pIC50: −log10 of the molar value. Entries after “also recorded” stand apart in the source; their conditions may differ. Where two headings read alike, the source gives them in different places.

What was measured:
NCI-H23 [1] = assay: MECP in cancer cell line; format: cell-based; conditions: Homo sapiens
Summary of the method: (§1)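 Cells grown in DMEM with 5% FBS at 37° C, 5% CO2, then treated at 1 nM to 30 μM. Imaging at 24, 48 or 72 h scored mitotic arrest or DNA-content change; hits show transient mitotic-index rise at 24 h and polyploid accumulation at 48 h; values binned A (≤1.0 μM) to D (>30.0 μM).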

NCI-N87 [2] = assay: MECP in cancer cell line; format: cell-based; conditions: Homo sapiens
Summary of the method: as §1

[3] = tested on: human lung adenocarcinoma cell line NCI-H23; assay: Xenograft assay; format: in vivo; conditions: Nu/Nu mice, 25 mg/kg oral gavage twice a day for 7 days
Method: (§2) Xenografts were initiated in immunocompromised (Nu/Nu) mice with the human lung adenocarcinoma cell line NCI-H23 (FIG. 4A) and the human breast cancer cell line MDA-MB-231 (FIG. 4B). Seven million cells were injected subcutaneously into each mouse and treatment was initiated when the average tumor volumes reached 150 mm3 (n=5/group). Tumor-bearing mice were randomized into different groups to receive either vehicle or indicated compounds. The compounds were administered through oral gavage twice a day for 7 days. For these experiments, all compounds were first dissolved in DMSO and then diluted 1:10 into a mixture containing 50% PEG300 and 49% PBS, 1% Tween 80, pH2.2. 100 ul of drug solution was administered with each dose to each a dose of 25 mg/kg. Tumor volumes were determined from digital caliper raw data by using the formula: Volume (mm3)=(L×W^2)/2. The value W (Width) is the smaller of two perpendicular tumor axes and the value L (Length) is the larger of two perpendicular axes. Mean tumor volumes were calculated for each treatment group at the start point (day 0) and the endpoint (day 7). The percentage change of tumor volumes, defined as (Tumor […]˜Tumor Volume^day0)/Tumor Volume^day0×100% is presented.

[4] = tested on: human breast cancer cell line MDA-MB-231; assay: Xenograft assay; format: in vivo; conditions: MDA-MB-231 xenograft, Nu/Nu mice, 25 mg/kg oral gavage twice a day for 7 days
Method: as §2

NCI-H23 [5] = assay: MTT assay of cellular proliferation; format: cell-based; conditions: Homo sapiens, 50% inhibition of cellular proliferation
Summary of the method: (§3)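 EC50 values reflect the compound concentration that halved proliferation, judged by mitochondrial reduction of MTT to formazan measured at A570. Drug exposure spanned 1 nM to 30 μM after cells reached 20-30% confluence in DMEM with 5% FBS.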

T2 HCC [6] = assay: MTT assay of cellular proliferation; format: cell-based; conditions: Mus musculus, 50% inhibition of cellular proliferation
Summary of the method: as §3

A549 [7] = assay: MTT assay of cellular proliferation; format: cell-based; conditions: Homo sapiens, 50% inhibition of cellular proliferation
Summary of the method: as §3

SW480 [8] = assay: MTT assay of cellular proliferation; format: cell-based; conditions: Homo sapiens, 50% inhibition of cellular proliferation
Summary of the method: as §3

MDA-MB-231 [9] = assay: MTT assay of cellular proliferation; format: cell-based; conditions: Homo sapiens; MDA-MB-231, MTT, 50% inhibition of cellular proliferation
Summary of the method: as §3

Hela [10] = assay: MTT assay of cellular proliferation; format: cell-based; conditions: Homo sapiens, 50% inhibition of cellular proliferation
Summary of the method: as §3

HCT116 [11] = assay: MTT assay of cellular proliferation; format: cell-based; conditions: Homo sapiens, HCT-116, 50% inhibition of cellular proliferation
Summary of the method: as §3

NCI-N87 [12] = assay: MTT assay of cellular proliferation; format: cell-based; conditions: Homo sapiens, 50% inhibition of cellular proliferation
Summary of the method: as §3

T2 HCC [13] = assay: MECP in cancer cell line; format: cell-based; conditions: Mus musculus
Summary of the method: as §1

A549 [14] = assay: MECP in cancer cell line; format: cell-based; conditions: Homo sapiens
Summary of the method: as §1

SW480 [15] = assay: MECP in cancer cell line; format: cell-based; conditions: Homo sapiens
Summary of the method: as §1

MDA-MB-231 [16] = assay: MECP in cancer cell line; format: cell-based; conditions: Homo sapiens
Summary of the method: as §1

Hela [17] = assay: MECP in cancer cell line; format: cell-based; conditions: Homo sapiens
Summary of the method: as §1

HCT116 [18] = assay: MECP in cancer cell line; format: cell-based; conditions: Homo sapiens, HCT-116
Summary of the method: as §1

RPEMYC^H2B-GFP cells = assay: Phenotypic screening assay (mitotic arrest, polyploidy); format: cell-based; conditions: 1 nM to 30 μM; for pIC50: read-out: Proliferative arrest (>50%)
Summary of the method: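 RPE cells expressing MYC and H2B-EGFP treated with compound at 1 nM–30 μM; mitotic index scored at 24 h and polyploidy (DNA content) at 48 h by automated imaging, with reads at 24, 48 or 72 h. Hits show transient mitotic arrest followed by polyploid accumulation.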

NCI-H596 [19] = assay: MTT assay of cellular proliferation; format: cell-based; conditions: Homo sapiens, 50% inhibition of cellular proliferation
Summary of the method: as §3

T98G [20] = assay: MTT assay of cellular proliferation; format: cell-based; conditions: Homo sapiens, 50% inhibition of cellular proliferation
Summary of the method: as §3

NCI-H460 [21] = assay: MTT assay of cellular proliferation; format: cell-based; conditions: Homo sapiens, 50% inhibition of cellular proliferation
Summary of the method: as §3

NCI-H596 [22] = assay: MECP in cancer cell line; format: cell-based; conditions: Homo sapiens
Summary of the method: as §1

T98G [23] = assay: MECP in cancer cell line; format: cell-based; conditions: Homo sapiens
Summary of the method: as §1

NCI-H460 [24] = assay: MECP in cancer cell line; format: cell-based; conditions: Homo sapiens
Summary of the method: as §1

[25] = tested on: cervical cancer cell line Hela; assay: Soft agar colony formation assay; format: cell-based, human
Excerpt: (§4) Measuring the ability of cells to grow in soft agar has been popularly believed as the gold standard assay for cellular transformation in vitro. In the Soft Agar Assay, cells grow from single cells to cell colonies in a semi-solid agar solution that keeps them away from the solid surface and allows growth in an anchorage-independent way.
(§5) The anchorage-independent growth of cells is one of the hallmarks of cancer cells. Normal epithelial cells are supported by basement membranes that provide survival and proliferative signals while undergo a type of apoptosis called anoikis when lose their attachment to the extracellular matrix. Cancer cells, in contrast, evade detachment-induced apoptosis, leading to uncontrolled proliferation and metastasis. The Soft Agar Colony Formation Assay allows testing of the therapeutic efficacy of compounds against anchorage-independent 3D growth of cancer cells in vin. The assay was performed in 6-well plates with two layers of agar. For the first, 0.75% agar in DMEM medium was melted in a microwave oven and poured to form a bottom layer. Once solidified, 10-100K cells in 1 ml of DMEM containing 0.35% agar was added to form the top layer, which was later covered with 0.5 ml of DMEM. Cell culture medium was changed once every two days until colonies were ready to photograph. We test the antitumor activity of select compounds in soft agar colony formation assays. […] The suppression of growth of these three cancer cell lines in 3D culture is consistent with the potent impact of these compounds on cellular proliferation in 2D culture.

Human Cancer Cells = assay: Anchorage-independent growth in 3D culture (FIG. 3); format: cell-based; conditions: FIG. 3 legend, cell line not named
Excerpt: as §4, §5

[26] = read-out: Min. Effective conc. for Polyploidy (≥5%)

SMILES | minimal effective concentration (NCI-H23 [1]) [µM] | pEC50 (NCI-H23 [5]) | pEC50 (T2 HCC [6]) | pEC50 (MDA-MB-231 [9]) | pEC50 (Hela [10]) | pEC50 (HCT116 [11]) | minimal effective concentration (T2 HCC [13]) [µM] | minimal effective concentration (MDA-MB-231 [16]) [µM] | minimal effective concentration (Hela [17]) [µM] | minimal effective concentration (HCT116 [18]) [µM] | minimal effective concentration (RPEMYC^H2B-GFP cells; [26]) [µM] | minimal effective concentration (RPEMYC^H2B-GFP cells; read-out: Mitotic Arrest (≥5%)) [µM] | pIC50 (RPEMYC^H2B-GFP cells) | also measured
COc1cc(Oc2ccnc3cc(OC)c(OC)cc23)cc(-n2cccn2)c1 [Compound 26, 6,7-dimethoxy-4-(3-methoxy-5-(1H-pyrazol-1-yl)phenoxy)quinoline] | 0.001 to 1 | 6.00 to 9.00 | 6.00 to 9.00 | 6.00 to 9.00 | 6.00 to 9.00 | 6.00 to 9.00 | 0.001 to 1 | 0.001 to 1 | 0.001 to 1 | 0.001 to 1 | 0.001 to 1 | 0.001 to 1 | 6.00 to 9.00 | minimal effective concentration (NCI-N87 [2]): 0.001 to 1 µM; tumor growth (percentage change of tumor volumes) [3]: suppress the growth; also recorded: suppressing the tumor growth; tumor growth (percentage change of tumor volumes) [4]: suppress the growth; also recorded: suppressing the tumor growth; pEC50 (A549 [7]): 6.00 to 9.00; pEC50 (SW480 [8]): 6.00 to 9.00; pEC50 (NCI-N87 [12]): 6.00 to 9.00; minimal effective concentration (A549 [14]): 0.001 to 1 µM; minimal effective concentration (SW480 [15]): 0.001 to 1 µM
COC(=O)c1cc(Oc2ccnc3ccccc23)cc(C(=O)OC)c1 [Compound 15, dimethyl 5-(quinolin-4-yloxy)isophthalate] | 0.001 to 1 | 6.00 to 9.00 | 6.00 to 9.00 | 6.00 to 9.00 | 6.00 to 9.00 | 6.00 to 9.00 | 0.001 to 1 | 0.001 to 1 | 0.001 to 1 | 0.001 to 1 | 0.001 to 1 | 0.001 to 1 | 6.00 to 9.00 | pEC50 (NCI-H596 [19]): 5.00 to 6.00; pEC50 (T98G [20]): 5.00 to 6.00; pEC50 (NCI-H460 [21]): < 4.52; minimal effective concentration (NCI-H596 [22]): 0.001 to 1 µM; minimal effective concentration (T98G [23]): 1 to 10 µM; minimal effective concentration (NCI-H460 [24]): 1 to 10 µM; anchorage-independent growth in soft agar [25]: effectively suppressed the anchorage-independent growth; Anchorage-independent Growth of Human Cancer Cells in 3D Culture (Human Cancer Cells): Suppress the Anchorage-independent Growth
